Results published in patent publication US4383990A, “Antiviral agents, their preparation and use” (priority 1980, dated 1983).
Converted amounts (≈) assume the structure as drawn. Each block holds one molecule with its values, some of them ahead of it.

Columns and labels:
[1] = test system: Herpes simplex type 1 virus (HFEM strain); assay: Plaque reduction of Herpes simplex type 1 virus (HFEM strain) in Vero cells; format: cell-based, Herpes simplex virus type 1; conditions: for ED50 (concentration reducing the plaque number at 50%): HSV-1 strain HFEM, 8640 min; for ED50 (concentration reducing the plaque number at 50%) / IC50: Vero cells; for IC50: Human alphaherpesvirus 1, 144 h, HSV-1 HFEM strain, 37° C., 6 days
From the text: (§1) The same method was used to determine the ED50 (concentration reducing the plaque number at 50%) of the E/Z mixture against the KOS and SK16 strains of Herpes simplex virus type 1 and the ED50 of the E/Z mixture and the separated isomers ("peak 1" and "peak 2") against the HFEM strain.

[2] = test system: Herpes simplex virus type 1 (KOS strain); assay: Plaque reduction of Herpes simplex virus type 1, KOS strain; format: cell-based; conditions: Human alphaherpesvirus 1, 144 h; HSV-1 strain KOS, Vero cells; read-out: ED50 (concentration reducing the plaque number at 50%)
From the text: as §1

[3] = test system: Herpes simplex virus type 1 (SCl6 strain); assay: Plaque reduction of Herpes simplex virus type 1, SCl6 strain; format: cell-based; conditions: Human alphaherpesvirus 1, 144 h; HSV-1 strain SCl6, Vero cells; read-out: ED50 (concentration reducing the plaque number at 50%)
From the text: as §1

[4] = Anti-host cell activity: growth of Vero cells; format: cell-based, African Green Monkey; conditions: monkey, vero cells; Vero cell growth versus antiviral activity; read-out: Therapeutic ratio
Description: (§2) Vero cells seeded at low density were grown in the presence of E/Z-5-(2-chloro-1,2-difluorovinyl)-2'-deoxyuridine for 72 h. During this time the cells doubled in number approximately once every 24 h. […] 5-(2-Chloro-1,2-difluorovinyl)-2'-deoxyuridine thus has a therapeutic ratio of >5.

Vero cells = assay: Anti-host cell activity: growth of Vero cells; format: cell-based, African Green Monkey; conditions: Vero cells, 72 h
Description: as §2

[5] = test system: human diploid fibroblast MRC-5 cell line; assay: Anti-host cell activity: proliferation of human diploid fibroblast MRC-5 cells; format: cell-based; conditions: even at 200 μg/ml
[6] = african green monkey, vero cells

IC50 [1]: 14 µg/mL (≈ 43.1 µM)
EC50 [2]: 20 µg/mL (≈ 61.6 µM)
EC50 [3]: 21 µg/mL (≈ 64.7 µM)
MCC at 144 h [6]: > 200 µg/mL
Structure (SMILES): O=c1[nH]c(=O)n([C@H]2C[C@H](O)[C@@H](CO)O2)cc1C(F)=C(F)Cl [E/Z-5-(1,2-Difluoro-2-chlorovinyl)-2'-deoxyuridine]
ED50 (concentration reducing the plaque number at 50%) ([1]; listed as E/Z): 24 ± 3 µg/mL (≈ 73.9 µM)
selectivity ratio [4]: > 5
Cell doubling time in the presence of compound (Vero cells): ~24 h
Depression of cell growth (Vero cells; 100 μg/ml): only slight depression of cell growth was observed
Effect on cell proliferation [5]: little effect on cell proliferation

Structure (SMILES): O=c1[nH]c(=O)n([C@H]2C[C@H](O)[C@@H](CO)O2)cc1C(F)=C(F)Cl (single isomer, unassigned) [Peak 1]
ED50 (concentration reducing the plaque number at 50%) [1]: > 100 µg/mL

Structure (SMILES): O=c1[nH]c(=O)n([C@H]2C[C@H](O)[C@@H](CO)O2)cc1I [5-iodo-2'-deoxyuridine, reference compound]
IC50 [1]: 3 µg/mL (≈ 8.47 µM)
MCC at 144 h [6]: > 100 µg/mL

Structure (SMILES): O=c1[nH]c(=O)n([C@H]2C[C@H](O)[C@@H](CO)O2)cc1C(F)=C(F)Cl (single isomer, unassigned) [Peak 2]
ED50 (concentration reducing the plaque number at 50%) [1]: 24 ± 6 µg/mL (≈ 73.9 µM)
Activity of the separated isomers in the screens ([1]; in words, at the levels tested): Only one of the isomers is active at the levels tested
